Measured values published in PMC6593427, “DUckCov: a Dynamic Undocking‐Based Virtual Screening Protocol for Covalent Binders” (Chemmedchem, 2019).

Tests used:
Assay type in all cases: biochemical
[1] = molecular target: T1, JAK3 (Homo sapiens, UniProt P52333); experiment: Z'-LYTE FRET kinase assay, 10-point titration
T1 construct: commercial Z'-LYTE kinase assay (Life Technologies)
T1 sequence (P52333 1-1124): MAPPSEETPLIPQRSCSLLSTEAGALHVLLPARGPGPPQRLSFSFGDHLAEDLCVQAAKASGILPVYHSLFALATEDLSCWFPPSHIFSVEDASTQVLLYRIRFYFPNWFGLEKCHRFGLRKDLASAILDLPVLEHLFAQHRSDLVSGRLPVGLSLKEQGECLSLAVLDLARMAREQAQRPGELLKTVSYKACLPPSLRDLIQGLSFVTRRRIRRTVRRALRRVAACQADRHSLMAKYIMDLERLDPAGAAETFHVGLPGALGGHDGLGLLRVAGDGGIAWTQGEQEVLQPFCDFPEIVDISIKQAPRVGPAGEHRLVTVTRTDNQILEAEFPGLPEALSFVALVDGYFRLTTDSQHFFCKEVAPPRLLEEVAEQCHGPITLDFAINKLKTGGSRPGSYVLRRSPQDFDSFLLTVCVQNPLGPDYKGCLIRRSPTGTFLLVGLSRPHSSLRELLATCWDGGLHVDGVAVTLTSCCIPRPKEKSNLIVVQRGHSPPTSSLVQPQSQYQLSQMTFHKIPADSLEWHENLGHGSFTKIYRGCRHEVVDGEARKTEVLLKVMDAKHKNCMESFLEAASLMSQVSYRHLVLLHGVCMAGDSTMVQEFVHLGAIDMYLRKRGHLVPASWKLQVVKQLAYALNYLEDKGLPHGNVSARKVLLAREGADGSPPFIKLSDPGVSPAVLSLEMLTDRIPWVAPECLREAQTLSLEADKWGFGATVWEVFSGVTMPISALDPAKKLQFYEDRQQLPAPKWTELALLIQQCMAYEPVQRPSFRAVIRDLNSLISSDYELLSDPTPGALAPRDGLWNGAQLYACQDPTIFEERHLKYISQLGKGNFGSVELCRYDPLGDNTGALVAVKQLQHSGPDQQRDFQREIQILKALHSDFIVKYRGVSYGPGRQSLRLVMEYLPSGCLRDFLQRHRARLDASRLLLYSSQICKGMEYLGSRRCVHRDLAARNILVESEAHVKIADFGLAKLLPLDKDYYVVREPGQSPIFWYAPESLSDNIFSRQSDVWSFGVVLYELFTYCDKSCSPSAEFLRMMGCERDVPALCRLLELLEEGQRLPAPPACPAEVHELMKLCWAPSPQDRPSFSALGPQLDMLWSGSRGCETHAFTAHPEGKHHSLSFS

[2] = molecular target: JAK1 (Homo sapiens, UniProt P23458); experiment: kinase inhibition assay
[3] = molecular target: JAK2 (Homo sapiens, UniProt O60674); experiment: kinase inhibition assay
Chain of JAK2 (O60674 whole entry): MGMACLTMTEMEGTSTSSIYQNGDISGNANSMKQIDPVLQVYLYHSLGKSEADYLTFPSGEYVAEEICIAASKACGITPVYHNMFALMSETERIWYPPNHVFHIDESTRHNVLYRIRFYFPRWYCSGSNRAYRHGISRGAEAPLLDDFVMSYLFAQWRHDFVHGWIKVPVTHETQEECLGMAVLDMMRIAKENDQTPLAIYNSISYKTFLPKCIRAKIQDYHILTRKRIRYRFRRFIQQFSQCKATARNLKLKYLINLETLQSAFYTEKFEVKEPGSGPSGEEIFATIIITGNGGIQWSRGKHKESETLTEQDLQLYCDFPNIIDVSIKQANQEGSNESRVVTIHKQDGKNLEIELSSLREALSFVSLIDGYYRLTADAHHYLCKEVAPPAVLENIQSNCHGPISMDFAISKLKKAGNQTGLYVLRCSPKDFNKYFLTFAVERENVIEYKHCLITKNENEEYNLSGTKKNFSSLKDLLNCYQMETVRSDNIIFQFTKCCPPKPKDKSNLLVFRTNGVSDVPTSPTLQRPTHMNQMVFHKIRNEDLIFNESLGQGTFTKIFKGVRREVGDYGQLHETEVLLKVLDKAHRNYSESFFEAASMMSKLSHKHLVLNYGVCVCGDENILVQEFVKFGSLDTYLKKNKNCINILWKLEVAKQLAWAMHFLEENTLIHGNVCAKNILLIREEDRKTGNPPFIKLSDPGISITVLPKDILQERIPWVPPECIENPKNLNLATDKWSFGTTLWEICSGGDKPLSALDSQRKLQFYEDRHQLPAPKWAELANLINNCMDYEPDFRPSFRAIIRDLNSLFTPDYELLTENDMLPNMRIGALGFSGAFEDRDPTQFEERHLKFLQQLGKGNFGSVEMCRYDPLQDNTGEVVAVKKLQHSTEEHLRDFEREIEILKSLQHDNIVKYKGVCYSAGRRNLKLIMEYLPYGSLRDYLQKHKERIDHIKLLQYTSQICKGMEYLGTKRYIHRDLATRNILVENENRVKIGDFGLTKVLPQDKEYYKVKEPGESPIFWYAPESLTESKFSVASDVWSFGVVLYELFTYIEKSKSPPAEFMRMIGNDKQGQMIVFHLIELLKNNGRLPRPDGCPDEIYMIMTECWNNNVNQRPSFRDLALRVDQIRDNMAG

Chain of JAK1 (P23458 whole entry): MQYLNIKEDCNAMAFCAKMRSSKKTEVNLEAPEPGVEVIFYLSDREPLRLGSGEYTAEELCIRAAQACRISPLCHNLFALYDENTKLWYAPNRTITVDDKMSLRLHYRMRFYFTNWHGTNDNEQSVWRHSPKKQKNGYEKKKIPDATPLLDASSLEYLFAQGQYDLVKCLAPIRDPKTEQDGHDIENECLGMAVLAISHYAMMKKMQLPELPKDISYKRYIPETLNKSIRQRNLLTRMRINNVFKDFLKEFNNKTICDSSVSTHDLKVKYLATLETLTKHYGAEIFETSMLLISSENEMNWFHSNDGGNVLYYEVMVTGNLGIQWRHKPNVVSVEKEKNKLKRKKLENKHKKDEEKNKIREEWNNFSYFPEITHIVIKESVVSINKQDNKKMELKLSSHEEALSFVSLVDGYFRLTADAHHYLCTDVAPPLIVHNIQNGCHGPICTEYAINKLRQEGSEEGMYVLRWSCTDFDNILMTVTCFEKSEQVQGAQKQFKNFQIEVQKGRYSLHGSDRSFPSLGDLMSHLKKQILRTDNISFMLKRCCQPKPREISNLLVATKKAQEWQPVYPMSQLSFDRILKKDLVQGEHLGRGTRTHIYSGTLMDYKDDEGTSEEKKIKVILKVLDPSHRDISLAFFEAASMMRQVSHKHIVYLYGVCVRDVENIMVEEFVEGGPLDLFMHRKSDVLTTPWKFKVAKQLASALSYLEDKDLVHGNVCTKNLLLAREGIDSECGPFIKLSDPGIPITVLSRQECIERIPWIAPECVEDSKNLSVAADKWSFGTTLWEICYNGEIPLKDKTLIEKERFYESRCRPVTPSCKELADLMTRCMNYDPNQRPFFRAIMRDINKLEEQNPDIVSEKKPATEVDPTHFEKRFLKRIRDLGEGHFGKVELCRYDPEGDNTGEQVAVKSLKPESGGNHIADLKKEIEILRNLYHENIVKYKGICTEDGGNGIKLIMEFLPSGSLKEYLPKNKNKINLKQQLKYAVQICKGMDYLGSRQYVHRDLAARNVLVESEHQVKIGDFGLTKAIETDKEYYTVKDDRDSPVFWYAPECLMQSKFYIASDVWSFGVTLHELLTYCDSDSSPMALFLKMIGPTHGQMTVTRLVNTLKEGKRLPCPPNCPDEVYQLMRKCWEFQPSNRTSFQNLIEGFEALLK

IC50 [1] [nM] | inhibition at 10 µM [2] [%] | inhibition at 10 µM [3] [%] | Compound
5 | – | – | C=CC(=O)N1C[C@H](COc2nc(Nc3cnn(C)c3)nc3[nH]cc(Cl)c23)[C@@H](OC)C1 [compound 1, PF-06459988]
389 | 18 | 62 | C=CC(=O)Nc1cc(NC(=O)c2n[nH]c3ccccc23)ccc1F [compound 5]
1270 | – | – | C=CC(=O)Nc1cc(NC(=O)c2n[nH]c3c2CCC3)ccc1F [compound 9]
